This is an account of results in ChEMBL document CHEMBL1914391, “Design and synthesis of biotinylated inositol 1,3,4,5-tetrakisphosphate targeting Grp1 pleckstrin homology domain” (Bioorg Med Chem, 2011).

The term Kd denotes the concentration at which binding is half-saturated.

In experiment [1] the target is T1, 1-phosphatidylinositol 4,5-bisphosphate phosphodiesterase delta-1 (Homo sapiens, UniProt P51178).
T1 sequence (P51178 whole entry): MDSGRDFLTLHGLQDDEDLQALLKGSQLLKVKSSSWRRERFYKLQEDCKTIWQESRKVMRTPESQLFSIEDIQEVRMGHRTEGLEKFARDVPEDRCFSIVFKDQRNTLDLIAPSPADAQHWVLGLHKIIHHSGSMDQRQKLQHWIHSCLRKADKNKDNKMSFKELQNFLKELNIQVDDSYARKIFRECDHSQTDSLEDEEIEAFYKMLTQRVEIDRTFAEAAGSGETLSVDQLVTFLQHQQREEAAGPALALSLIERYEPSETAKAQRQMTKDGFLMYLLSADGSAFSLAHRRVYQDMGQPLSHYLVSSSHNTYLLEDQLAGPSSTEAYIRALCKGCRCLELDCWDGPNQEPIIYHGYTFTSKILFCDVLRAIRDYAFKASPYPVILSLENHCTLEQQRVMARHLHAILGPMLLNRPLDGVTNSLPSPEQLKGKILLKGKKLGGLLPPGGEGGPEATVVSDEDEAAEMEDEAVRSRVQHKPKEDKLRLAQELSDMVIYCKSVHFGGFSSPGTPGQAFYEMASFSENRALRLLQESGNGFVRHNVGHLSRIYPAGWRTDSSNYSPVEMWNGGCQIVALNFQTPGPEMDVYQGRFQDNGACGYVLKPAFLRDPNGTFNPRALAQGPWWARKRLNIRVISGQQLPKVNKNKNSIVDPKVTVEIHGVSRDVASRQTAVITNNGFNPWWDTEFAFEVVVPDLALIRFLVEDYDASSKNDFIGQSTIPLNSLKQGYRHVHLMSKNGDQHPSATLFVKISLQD
Put plainly: Binding affinity to PLCdelta1 PH domain.

In experiment [2] the target is T2, Cytohesin-3 (Rattus norvegicus, UniProt P97696).
T2 sequence (P97696 whole entry): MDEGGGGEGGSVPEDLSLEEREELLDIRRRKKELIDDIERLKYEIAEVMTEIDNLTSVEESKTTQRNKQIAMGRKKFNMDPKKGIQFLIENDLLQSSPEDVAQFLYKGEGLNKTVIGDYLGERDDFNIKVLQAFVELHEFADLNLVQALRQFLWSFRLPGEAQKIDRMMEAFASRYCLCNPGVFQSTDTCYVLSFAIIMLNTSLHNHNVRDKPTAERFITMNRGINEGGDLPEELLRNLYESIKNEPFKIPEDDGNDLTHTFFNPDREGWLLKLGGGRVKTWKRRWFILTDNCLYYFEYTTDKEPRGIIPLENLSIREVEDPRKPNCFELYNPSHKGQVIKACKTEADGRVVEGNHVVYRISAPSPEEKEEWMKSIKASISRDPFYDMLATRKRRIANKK
Put plainly: Binding affinity to recombinant rat brain Grp1 PH domain (amino acids 1 to 120) by SPR analysis. On the technique in general: Surface plasmon resonance follows binding to a sensor surface in real time, without labels.

For experiment [3], the target named is T3, 1-phosphatidylinositol 4,5-bisphosphate phosphodiesterase delta-1 (Rattus norvegicus, UniProt P10688).
T3 sequence (P10688 whole entry): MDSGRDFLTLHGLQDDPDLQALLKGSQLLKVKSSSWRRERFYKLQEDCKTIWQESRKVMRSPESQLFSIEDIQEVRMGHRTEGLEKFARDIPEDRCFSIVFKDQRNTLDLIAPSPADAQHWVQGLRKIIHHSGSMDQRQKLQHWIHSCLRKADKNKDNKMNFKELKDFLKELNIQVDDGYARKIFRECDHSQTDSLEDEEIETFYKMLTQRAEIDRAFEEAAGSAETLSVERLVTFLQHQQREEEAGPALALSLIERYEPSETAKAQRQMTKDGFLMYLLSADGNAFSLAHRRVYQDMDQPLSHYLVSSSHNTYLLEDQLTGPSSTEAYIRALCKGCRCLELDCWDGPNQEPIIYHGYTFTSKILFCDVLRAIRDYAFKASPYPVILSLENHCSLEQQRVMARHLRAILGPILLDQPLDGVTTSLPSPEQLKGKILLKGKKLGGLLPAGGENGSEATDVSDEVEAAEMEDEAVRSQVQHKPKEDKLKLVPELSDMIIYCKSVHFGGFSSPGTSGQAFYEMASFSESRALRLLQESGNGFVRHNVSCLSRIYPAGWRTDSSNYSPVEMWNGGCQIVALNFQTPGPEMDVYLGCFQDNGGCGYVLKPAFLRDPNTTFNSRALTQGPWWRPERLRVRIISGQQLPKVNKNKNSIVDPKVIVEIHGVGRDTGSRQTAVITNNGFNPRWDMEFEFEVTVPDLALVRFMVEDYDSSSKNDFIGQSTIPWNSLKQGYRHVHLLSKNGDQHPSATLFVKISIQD
Put plainly: Binding affinity to recombinant rat brain PLCdelta1 PH domain (amino acids 11 to 140) by SPR analysis.

Experiment [4] concerns the target T2, Cytohesin-3. Briefly: Binding affinity to recombinant rat brain Grp1 PH domain (amino acids 1 to 120) after 10 mins by pull-down assay.

SMILES strings stand for the structures. A value given as a limit tells only on which side of the number the result lay.

Turning to `O=C(CCCC[C@@H]1SC[C@@H]2NC(=O)N[C@@H]21)NCCCCCCOP(=O)(O)O[C@H]1[C@H](O)[C@@H](OP(=O)(O)O)[C@H](OP(=O)(O)O)[C@@H](OP(=O)(O)O)[C@H]1O`, the dissociation constant (Kd) in experiment [1] is 250 nM; at Cytohesin-3 [2] it was 300 nM; in experiment [3], above 5000 nM; at Cytohesin-3 [4], 140 nM.
On to `O=C(CCCC[C@@H]1SC[C@@H]2NC(=O)N[C@@H]21)NCCCCCCOP(=O)(O)O[C@@H]1[C@H](O)[C@H](O)[C@@H](OP(=O)(O)O)[C@H](OP(=O)(O)O)[C@H]1O`, for which the results for the Kd (at Cytohesin-3 [2]; in experiment [3]) were above 1000 nM and 2200 nM, respectively.
As for `O=C(CCCC[C@@H]1SC[C@@H]2NC(=O)N[C@@H]21)NCCCCCCOP(=O)(O)O[C@@H]1[C@@H](O)[C@H](OP(=O)(O)O)[C@@H](OP(=O)(O)O)[C@H](O)[C@@H]1O`, the Kd on Cytohesin-3 [2] was above 1000 nM; in experiment [3], above 5000 nM.
In the case of `O=P(O)(O)O[C@H]1[C@H](O)[C@@H](OP(=O)(O)O)[C@H](OP(=O)(O)O)[C@@H](OP(=O)(O)O)[C@H]1O`, the Kd at Cytohesin-3 [4] is 100 nM.
